Patent US5078135A, “Apparatus for in vivo analysis of biological compounds in blood or tissue by microdialysis and mass spectrometry” (Board of Regents, The University of Texas System, priority 1989, dated 1992)

Tests used:
[1] = intramuscular administration; broken curve 43 in FIG. 4; cited from earlier work
[2] = in vivo pharmacokinetic analysis of free drug by microdialysis / CF-FAB mass spectrometry (jugular vein probe, rat); set-up: species or system Sprague Dawley male rat; details: 330 gram rat, 15 milligrams sodium penicillin G in 0.3 milliliters saline, injected
Excerpt: Referring to FIG. 1, the present invention applied to detect drug and metabolite levels in a rat is disclosed. It should be emphasized that the present apparatus and method can be applied to other animals, including humans. Microdialysis probe 11 is inserted inside a 22-gauge needle cannula (not shown) surgically placed in the jugular vein of a 330 gram Sprague Dawley male rat 12. A microliter syringe pump 13 is connected to microdialysis probe 11 by tube 14 and is used to controllably provide perfusate to microdialysis probe 11 through tube 14. Syringe pump 13 can be a Model 2274 pump available from the Harvard Apparatus Co., of Milford, Mass. In the preferred embodiment, the perfusate is 95% water and 5% glycerol provided at a rate of 4.8+/-0.2 microliters per minute.
The dialysate output from microdialysis probe 11 is connected through tube 16 to injection switch valve 17 which can be, for example, a Rheodyne Model 7410 injection switch valve. During collection, injection switch valve 17 is positioned so that dialysate passing through tube 16 passes through 20 microliter collection loop 18. […]
A 330 gram rat was injected with a dose of 15 milligrams of sodium penicillin G dissolved in 0.3 milliliters of physiological saline solution. Negative ions were recorded in the mass spectrometric analysis of the dialysate in order to obtain maximum sensitivity. […]

For `CC1(C)S[C@@H]2[C@H](NC(=O)Cc3ccccc3)C(=O)N2[C@H]1C(=O)O` [sodium penicillin G], the “time to peak, published data” value [1] is given as 26 to 30 min, the “peak concentration of free drug (non-protein bound)” value [2] is given as “approximately 24 micrograms per milliliter” and the “time of peak concentration of free drug” value [2] is given as “about 30 minutes”.
